Experiments:
Conditions in all cases: growth mode: biofilm, 24 h; exposure time: 24 h
colistin [1] = compound: T1, CCC(C)CCCC(=O)N[C@@H](CCN)C(=O)N[C@H](C(=O)N[C@@H](CCN)C(=O)N[C@H]1CCNC(=O)[C@H]([C@@H](C)O)NC(=O)[C@H](CCN)NC(=O)[C@H](CCN)NC(=O)[C@H](CC(C)C)NC(=O)[C@@H](CC(C)C)NC(=O)[C@H](CCN)NC1=O)[C@@H](C)O [colistin]; assay: minimum concentration of killing, 1-log CFU reduction of biofilm (MCK90); higher = more biofilm tolerance
Method: (§1)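 Clinical P. aeruginosa isolates were grown as static biofilms for 24 h at 37 °C in LB in half-area 96-well plates, then exposed for 24 h to colistin at 1, 4, 16, 64, 256 or […]. Surviving CFU were counted by spotting serial dilutions. MCK is the lowest tested concentration giving the stated log reduction in CFU versus an untreated control; '>1024' means the reduction was not reached at the top dose, and 1 is the lowest dose tested (≤1).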

colistin [2] = compound: T1, colistin; assay: minimum concentration eradicating biofilm below detection limit (MCK-E); higher = more biofilm tolerance
Method: as §1

colistin [3] = compound: T1, colistin; assay: minimum concentration of killing, 2-log CFU reduction of biofilm (MCK99); higher = more biofilm tolerance
Method: as §1

tobramycin [4] = compound: T2, NC[C@H]1O[C@H](O[C@H]2[C@H](O)[C@@H](O[C@H]3O[C@H](CO)[C@@H](O)[C@H](N)[C@H]3O)[C@H](N)C[C@@H]2N)[C@H](N)C[C@@H]1O [tobramycin]; assay: minimum concentration eradicating biofilm below detection limit (MCK-E); higher = more biofilm tolerance
Method: as §1, with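 “tobramycin” for “colistin”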

tobramycin [5] = compound: T2, tobramycin; assay: minimum concentration of killing, 4-log CFU reduction of biofilm (MCK99.99); higher = more biofilm tolerance
Method: as §1, with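 “tobramycin” for “colistin”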

tobramycin [6] = compound: T2, tobramycin; assay: minimum concentration of killing, 2-log CFU reduction of biofilm (MCK99); higher = more biofilm tolerance
Method: as §1, with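 “tobramycin” for “colistin”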

tobramycin [7] = compound: T2, tobramycin; assay: minimum concentration of killing, 1-log CFU reduction of biofilm (MCK90); higher = more biofilm tolerance
Method: as §1, with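 “tobramycin” for “colistin”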

colistin [8] = compound: T1, colistin; assay: minimum concentration of killing, 4-log CFU reduction of biofilm (MCK99.99); higher = more biofilm tolerance
Method: as §1

Test System | minimum concentration of killing (colistin [1]) | minimum concentration eradicating biofilm below detection limit (colistin [2]) | minimum concentration of killing (colistin [3]) | minimum concentration eradicating biofilm below detection limit (tobramycin [4]) | minimum concentration of killing (tobramycin [5]) | minimum concentration of killing (tobramycin [6]) | minimum concentration of killing (tobramycin [7]) | minimum concentration of killing (colistin [8])
Pseudomonas aeruginosa clinical isolate F1757 | 64 µg/mL | 256 µg/mL | 64 µg/mL | > 1020 µg/mL | > 1020 µg/mL | 64 µg/mL | ≤ 1 µg/mL | 64 µg/mL
Pseudomonas aeruginosa clinical isolate F2005 | 16 µg/mL | 256 µg/mL | 256 µg/mL | 1020 µg/mL | 16 µg/mL | 16 µg/mL | ≤ 1 µg/mL | 256 µg/mL
Pseudomonas aeruginosa clinical isolate ESP040 | 64 µg/mL | 64 µg/mL | 64 µg/mL | 64 µg/mL | 64 µg/mL | 16 µg/mL | 4 µg/mL | 64 µg/mL
Pseudomonas aeruginosa clinical isolate ESP058 | 256 µg/mL | 256 µg/mL | 256 µg/mL | 64 µg/mL | 64 µg/mL | 16 µg/mL | 4 µg/mL | 256 µg/mL
Pseudomonas aeruginosa clinical isolate ESP029 | 256 µg/mL | 256 µg/mL | 256 µg/mL | 256 µg/mL | 256 µg/mL | 4 µg/mL | 4 µg/mL | 256 µg/mL
Pseudomonas aeruginosa clinical isolate CH5638 | 64 µg/mL | 256 µg/mL | 256 µg/mL | 1020 µg/mL | 1020 µg/mL | 16 µg/mL | 16 µg/mL | 256 µg/mL
Pseudomonas aeruginosa clinical isolate F1706 | 256 µg/mL | 256 µg/mL | 256 µg/mL | 256 µg/mL | 16 µg/mL | 16 µg/mL | 4 µg/mL | 256 µg/mL
Pseudomonas aeruginosa clinical isolate CH5550 | 256 µg/mL | > 1020 µg/mL | 256 µg/mL | 1020 µg/mL | 1020 µg/mL | 16 µg/mL | 16 µg/mL | > 1020 µg/mL
Pseudomonas aeruginosa clinical isolate F1957 | 256 µg/mL | 1020 µg/mL | 256 µg/mL | 1020 µg/mL | 1020 µg/mL | 1020 µg/mL | 256 µg/mL | 256 µg/mL
Pseudomonas aeruginosa clinical isolate ESP006 | 64 µg/mL | 256 µg/mL | 64 µg/mL | 1020 µg/mL | 256 µg/mL | 64 µg/mL | 16 µg/mL | 64 µg/mL
Pseudomonas aeruginosa clinical isolate ESP093 | 16 µg/mL | 256 µg/mL | 64 µg/mL | > 1020 µg/mL | > 1020 µg/mL | 1020 µg/mL | 4 µg/mL | 256 µg/mL
Pseudomonas aeruginosa clinical isolate ESP060 | 256 µg/mL | 1020 µg/mL | 256 µg/mL | > 1020 µg/mL | > 1020 µg/mL | > 1020 µg/mL | > 1020 µg/mL | 1020 µg/mL
Pseudomonas aeruginosa clinical isolate ESP022 | 256 µg/mL | 256 µg/mL | 256 µg/mL | 256 µg/mL | 16 µg/mL | 16 µg/mL | 16 µg/mL | 256 µg/mL
Pseudomonas aeruginosa clinical isolate F1764 | 16 µg/mL | 64 µg/mL | 64 µg/mL | > 1020 µg/mL | 1020 µg/mL | 64 µg/mL | 16 µg/mL | 64 µg/mL
Pseudomonas aeruginosa clinical isolate ESP033 | 256 µg/mL | 256 µg/mL | 256 µg/mL | 256 µg/mL | 64 µg/mL | 64 µg/mL | 16 µg/mL | 256 µg/mL
Pseudomonas aeruginosa clinical isolate F2010 | 64 µg/mL | 1020 µg/mL | 256 µg/mL | 1020 µg/mL | 256 µg/mL | 64 µg/mL | 64 µg/mL | 256 µg/mL
Pseudomonas aeruginosa clinical isolate ESP039 | 64 µg/mL | 64 µg/mL | 64 µg/mL | 256 µg/mL | 64 µg/mL | 16 µg/mL | 4 µg/mL | 64 µg/mL
Pseudomonas aeruginosa clinical isolate ESP025 | 16 µg/mL | 64 µg/mL | 16 µg/mL | > 1020 µg/mL | > 1020 µg/mL | > 1020 µg/mL | 1020 µg/mL | 16 µg/mL
